# Reference: US8575170B2, “Flurbiprofen analogs and methods of use in treating cancer” (The Regents of the Unversity of Colorado, a body corporate, priority 2010, dated 2013)
# Like-named read-outs stand apart in the source and are kept apart here.
# Key:
# H3255 = experiment: MTT cell viability, H3255; assay type: cell-based; settings: Adenocarcinoma lung cell line H3255, 4 days incubation
# Protocol: (§1) The ability of the flurbiprofen analog compounds of the invention to inhibit cancer cell growth and survival (viability) in a variety of cancer lines was examined in a standard MTT assay for cell viability, as detailed in Example 2.
# (§2) The studies reported in Tables 1-3 above were carried out by incubating the cells in the test compound for four days, under standard cell-culture conditions, and measuring cell survival on day 5 (see Example 2).
# (§3) Cell growth and survival following treatment with N—[(S)-2-Fluoro-α-methyl-4-biphenylacetyl]-[L-(4-phenylphenyl)alanine]-N-(2,2,6,6-tetramethyl-4-piperidinyl)amide (GCBH-110=B1031; (S)-Fmba-L-Bip-Atmp) were measured by a rapid colorimetric assay based on the tetrazolium salt MTT (3-(4,5-dimethylthiazol-2-yl)-2,5-diphenyl tetrazolium bromide) (Mosmann, J. Immunol. Methods 65: 55-63, 1983, with minor modifications).
# (§4) Briefly, approximately 1,000-5,000 cancer cells from 15 different cancer cells lines were plated in 100 μL of growth medium in 96-well flat-bottomed microtiter plates. Cells were incubated overnight to allow recovery. Compounds to be tested were added to the cells in triplicate in a range of concentrations and the cells were incubated at 37° C., 5% CO2, with 100% humidity. Control cells were treated in the same way without antagonists. […] Absorbance was immediately determined using a scanning multiwell plate reader.
# H322C1 = experiment: MTT cell viability, H322C1; assay type: cell-based; settings: 96 h; Adenocarcinoma lung cell line H322C1; 4 days incubation
# Protocol: as §1, §2, §3, §4
# H1435a = experiment: MTT cell viability, H1435a; assay type: cell-based; settings: 96 h; Adenocarcinoma lung cell line H1435a; 4 days incubation
# Protocol: as §1, §2, §3, §4
# H3225a = experiment: MTT cell viability, H3225a; assay type: cell-based; settings: 96 h; Adenocarcinoma lung cell line H3225a; 4 days incubation
# Protocol: as §1, §2, §3, §4
# H1703 = experiment: MTT cell viability, H1703; assay type: cell-based; settings: Homo sapiens, NCI-H1703, 96 h; Adenosquamous lung cell line H1703; 4 days incubation
# Protocol: as §1, §2, §3, §4
# H460 = experiment: MTT cell viability, H460; assay type: cell-based; settings: Homo sapiens, NCI-H460, 96 h; Large Cell lung cell line H460; 4 days incubation
# Protocol: as §1, §2, §3, §4
# H460b = experiment: MTT cell viability, H460b; assay type: cell-based; settings: 96 h; Large Cell lung cell line H460b; 4 days incubation
# Protocol: as §1, §2, §3, §4
# H226 = experiment: MTT cell viability, H226; assay type: cell-based; settings: Homo sapiens, NCI-H226, 96 h; Squamous Mesothelioma lung cell line H226; 4 days incubation
# Protocol: as §1, §2, §3, §4
# SHP77 = experiment: MTT cell viability, SHP77; assay type: cell-based; settings: SCLC lung cell line SHP77, 4 days incubation
# Protocol: as §1, §2, §3, §4
# UMSCC10A = experiment: MTT cell viability, UMSCC10A; assay type: cell-based; settings: UMSCC-10A; Head and neck cancer cell line UMSCC10A
# Protocol: as §1
# (§5) A similar study was conducted on 14 […] cancer cell lines, identified in Table 2.
# as §3
# (§6) Briefly, approximately 1,000-5,000 cancer cells from 15 different cancer cells lines were plated in 100 μL of growth medium in 96-well flat-bottomed microtiter plates. Cells were incubated overnight to allow recovery. Compounds to be tested were added to the cells in triplicate in a range of concentrations and the cells were incubated at 37° C., 5% CO2, with 100% humidity. Control cells were treated in the same way without antagonists. […] Plates were incubated for 4 days, allowing sufficient time for cell replication and compound-induced cell death to occur. […] Absorbance was immediately determined using a scanning multiwell plate reader. […]
# MSK921 = experiment: MTT cell viability, MSK921; assay type: cell-based; settings: Head and neck cancer cell line MSK921
# Protocol: as §1, §5, §3, §6
# Capan-2 = experiment: MTT cell viability, Capan-2; assay type: cell-based; settings: Homo sapiens, 96 h; Pancreatic cancer cells Capan-2; 4 days incubation
# From the text: as §1
# (§7) Similar results were obtained for the effect of the B1031 compound on the 14 pancreatic tumor cells lines shown in Table 3 below, where the dose dependent effect of the compound on survival of the pancreatic cancer cell lines is shown in FIG. 5.
# as §2, §3
# (§8) Briefly, approximately 1,000-5,000 cancer cells from 15 different cancer cells lines were plated in 100 μL of growth medium in 96-well flat-bottomed microtiter plates. Cells were incubated overnight to allow recovery. […] Absorbance was immediately determined using a scanning multiwell plate reader.
# SW1990 = experiment: MTT cell viability, SW1990; assay type: cell-based; settings: Homo sapiens, 96 h; Pancreatic cancer cells SW1990; 4 days incubation
# From the text: as §1, §7, §2, §3, §8
# Panc-813 = experiment: MTT cell viability, Panc-813; assay type: cell-based; settings: Pancreatic cancer cell, 96 h; Pancreatic cancer cells Panc-813; 4 days incubation
# From the text: as §1, §7, §2, §3, §8
# WM375 = experiment: MTT cell viability, WM375; assay type: cell-based; settings: Melanoma cell line WM375
# From the text: as §1
# (§9) The results for the several cell lines above were also consistent with IC50 values measured for two melanoma cell lines shown in Table 4 below.
# as §3, §4
# WM239a = experiment: MTT cell viability, WM239a; assay type: cell-based; settings: Melanoma cell line WM239a
# From the text: as §1, §9, §3, §4
# [1] = Solubility of flurbiprofen analog compounds; assay type: physicochemical; settings: medium in which the compound is soluble, Table 5
# [2] = test system: head and neck cancer cell lines; experiment: MTT cell viability, panel of head and neck cancer cell lines; assay type: cell-based
# Protocol: as §1, §5, §3
# Briefly, approximately 1,000-5,000 cancer cells from 15 different cancer cells lines were plated in 100 μL of growth medium in 96-well flat-bottomed microtiter plates. Cells were incubated overnight to allow recovery. Compounds to be tested were added to the cells in triplicate in a range of concentrations and the cells were incubated at 37° C., 5% CO2, with 100% humidity. Control cells were treated in the same way without antagonists. […] Plates were incubated for 4 days, allowing sufficient time for cell replication and compound-induced cell death to occur. On day 5, 25 μL of a 2 mg/mL solution of MTT (Sigma) dissolved in RMPI-1640 was added to each well. The plate was incubated for 4 h at 37° C. The supernatant liquid was removed and the blue formazan complex was dissolved by adding 100 μL of 0.02 N HCl in 75% isopropanol to all wells. Absorbance was immediately determined using a scanning multiwell plate reader.
# Similarly, cell growth and survival following treatment with GCBH-110=B1031 was tested using the same MTT assay in 6 head and neck cancer cell lines. GCBH-110=B1031 caused 50% cell death at concentrations between about 0.3 μM and about 2 μM under these conditions (FIG. 3). […] GCBH-110=B1031 caused 50% cell death at concentrations between about 0.2 μM and about 0.8 μM under these conditions.
# [3] = test system: pancreatic cancer cell lines; experiment: MTT cell viability, panel of pancreatic cancer cell lines; assay type: cell-based
# From the text: as §1, §7, §3
# as §4, with “humidity.” for “humidity. Control cells were treated in the same way without antagonists.”
# [4] = test system: BTIC EF12 brain tumor initiating stem cells; experiment: Inhibition of BTIC EF12 brain tumor initiating stem cells; assay type: cell-based; settings: at 10 μM, FIG. 6B
# Protocol: (§10) FIGS. 6A and 6B show the loss in cell viability in HT-29 colon cancer cells, in response to increasing concentrations of GH 502 (GCBH 118) (FIG. 6A), and the effect of various treatments, including increasing concentration of GH501 (GCBH 110) on U251 malignant glioma cells and BTIC EF12 brain tumor initiating stem cells (FIG. 6B).
# (§11) The study shown in FIG. 6A examined the effect of GCBH-118 (GH502) on an HT-29 colon cancer cell, showing an IC50 value of about 1 μM. […] The graph indicates an IC50 value for the B1031 compound against the U251 brain cancer cell line of between 2 and 10 μM.
# [5] = test system: U251 malignant glioma cells; experiment: Inhibition of U251 malignant glioma cells; assay type: cell-based; settings: Homo sapiens, U-251; U251 brain cancer cell line, FIG. 6B
# Protocol: as §10, §11
smiles,measurement,setting,value
"C[C@H](C(=O)N[C@@H](Cc1ccc(-c2ccccc2)cc1)C(=O)NC1CC(C)(C)NC(C)(C)C1)c1ccc(-c2ccccc2)c(F)c1 [GCBH-110, N—[(S)-2-Fluoro-α-methyl-4-biphenylacetyl]-[L-(4-phenylphenyl)alanine]-N-(2,2,6,6-tetramethyl-4-piperidinyl)amide]",IC50,H3255; listed as B1031,0.9 µM
same,IC50,"H3255; Homo sapiens, NCI-H3255, 96 h",0.91 µM
same,IC50,H322C1,0.13 µM
same,IC50,H1435a,0.11 µM
same,IC50,H3225a,0.45 µM
same,IC50,H1703,0.36 µM
same,IC50,H460,0.48 µM
same,IC50,H460b,0.4 µM
same,IC50,H226,0.203 µM
same,IC50,"SHP77; Homo sapiens, SHP77, 96 h",0.5 µM
same,IC50,SHP77; listed as B1031,0.53 µM
same,IC50,UMSCC10A,0.2 µM
same,IC50,MSK921,0.77 µM
same,IC50,Capan-2,1.5 µM
same,IC50,SW1990,1.5 µM
same,IC50,Panc-813,3.1 µM
same,IC50,WM375,0.28 µM
same,IC50,WM239a,0.23 µM
same,Solubility,[1],50% DMSO
same,IC50,"[2]; 6 head and neck cancer cell lines, FIG. 3, read-out: concentrations causing 50% cell death",0.3 to 2 µM
same,IC50,"[2]; another panel of head and neck cancer cell lines, longer treatment exposure, FIG. 4, read-out: concentrations causing 50% cell death",0.2 to 0.8 µM
same,IC50,"[2]; majority of the head and neck cell lines, read-out: IC50 value, majority of the cell lines",< 0.5 µM
same,IC50,"[2]; span over 14 head and neck cancer cell lines, Table 2, FIGS. 3 and 4, read-out: IC50 values",0.2 to 2 µM
same,IC50,"[3]; majority of the pancreatic cell lines, read-out: IC50, majority of the cell lines",≤ 0.7 µM
same,IC50,"[3]; span over 14 pancreatic tumor cell lines, Table 3, FIG. 5, read-out: IC50 values",0.16 to 3.1 µM
same,compound inhibition of the BTIC EF12 cells,[4],inhibition
same,IC50,[5],2 to 10 µM
